From ChEMBL document CHEMBL1137884, “Synthesis of ether analogues derived from HUN-7293 and evaluation as inhibitors of VCAM-1 expression” (Bioorg Med Chem Lett, 2004)
Numbered stars: 1 amine (or outer) side, 2 acyl side, 3 side chain; on linkers, the order of the positions; unused ones are H or OH. Square brackets hold non-standard residues; d marks the D form. Peptide text beside a SMILES is read from it. NMeTrp(1-OMe) = CN[C@@H](Cc1cn(OC)c2ccccc12)C(=O)O; Butanoyl(2R-oxy,4-CN) = N#CCC[C@@H](O)C(=O)O; X1 = CCCC[C@@H](C)C[C@H](N[*:1])C(=O)[*:2]; NMeL = CN[C@@H](CC(C)C)C(=O)O; NMeA = CN[C@@H](C)C(=O)O

Experiments:
HMEC [1] = experiment: inhibition of TNF-alpha-induced VCAM-1 expression in the human microvascular endothelial cell line HMEC-1; type: functional, cell-based
HMEC [2] = experiment: inhibition of TNF-alpha-induced ICAM-1 expression in the human microvascular endothelial cell line HMEC-1; type: functional, cell-based

Row | IC50 (HMEC [1]) [µM] | IC50 (HMEC [2]) [µM] | SMILES
1 | 0.018 | > 30 | CCCC[C@@H](C)C[C@H]1CN(C)[C@@H](C)C(=O)O[C@H](C)C(=O)N[C@@H](C[C@H](C)CCCC)C(=O)N(C)[C@@H](CC(C)C)C(=O)N[C@@H](CC(C)C)C(=O)N(C)[C@@H](Cc2cn(OC)c3ccccc23)C(=O)N1
2 | 0.002 | 0.178 | CCCC[C@@H](C)C[C@@H]1NC(=O)[C@H](Cc2cn(OC)c3ccccc23)N(C)C(=O)[C@H](CC(C)C)NC(=O)[C@H](CC(C)C)N(C)C(=O)[C@H](C[C@H](C)CCCC)NC(=O)[C@@H](C)OC(=O)[C@H](C)N(C)C1=O
3 | 0.2 | – | CCCC[C@@H](C)C[C@@H]1NC(=O)[C@H](Cc2cn(OC)c3ccccc23)N(C)C(=O)[C@H](CC(C)C)NC(=O)[C@H](CC(C)C)N(C)C(=O)[C@H](C[C@H](C)CCCC)NC(=O)COC[C@H](C)N(C)C1=O
4 | 0.63 | > 30 | CCCC[C@@H](C)C[C@@H]1NC(=O)[C@H](Cc2cn(OC)c3ccccc23)N(C)C(=O)[C@H](CC(C)C)NC(=O)[C@H](CC(C)C)N(C)C(=O)[C@H](C[C@H](C)CCCC)NC(=O)[C@H](C)OC[C@H](C)N(C)C1=O
5 | 0.015 | 1.66 | CCCC[C@@H](C)C[C@@H]1NC(=O)[C@H](Cc2cn(OC)c3ccccc23)N(C)C(=O)[C@H](CC(C)C)NC(=O)[C@H](CC(C)C)N(C)C(=O)[C@H](C[C@H](C)CCCC)NC(=O)[C@@H](C)OC[C@H](C)N(C)C1=O
6 | 0.092 | 6.92 | CCCC[C@@H](C)C[C@H]1CN(C)[C@@H](C)C(=O)N[C@H](C)C(=O)N[C@@H](C[C@H](C)CCCC)C(=O)N(C)[C@@H](CC(C)C)C(=O)N[C@@H](CC(C)C)C(=O)N(C)[C@@H](Cc2cn(OC)c3ccccc23)C(=O)N1
7 | – | 0.025 | CCCC[C@@H](C)C[C@@H]1NC(=O)[C@H](Cc2cn(OC)c3ccccc23)N(C)C(=O)[C@H](CC(C)C)NC(=O)[C@H](CC(C)C)N(C)C(=O)[C@H](C[C@H](C)CCCC)NC(=O)[C@@H](CCC#N)OC(=O)[C@H](C)N(C)C1=O (cyclo(L[NMeTrp(1-OMe)][X1][NMeA][Butanoyl(2R-oxy,4-CN)][X1][NMeL]))
